Measured values: ChEMBL document CHEMBL4024706 (Eur J Med Chem, 2017)
Active and inactive are the calls of the source. No cut-off for these calls is given here.

What was measured:
[1] = target: Tyrosine-protein kinase BTK (Homo sapiens, UniProt Q06187); test: Inhibition of full length recombinant human N-terminal His tagged […] expressed in baculovirus infected Sf9 insect cells using poly (Glu,Tyr)4:1 as substrate pretreated for 60 mins followed by substrate addition after 1 hr by ADP-Glo luminescence assay
[2] = target: T1, Tyrosine-protein kinase JAK3 (Homo sapiens, UniProt P52333); test: Inhibition of recombinant human N-terminal GST-tagged JAK3 (781 to end residues) expressed in baculovirus infected Sf9 insect cells using poly (Glu,Tyr)4:1 as substrate pretreated for 60 mins followed by substrate addition after 1 hr by ADP-Glo luminescence assay
T1 sequence (P52333 whole entry): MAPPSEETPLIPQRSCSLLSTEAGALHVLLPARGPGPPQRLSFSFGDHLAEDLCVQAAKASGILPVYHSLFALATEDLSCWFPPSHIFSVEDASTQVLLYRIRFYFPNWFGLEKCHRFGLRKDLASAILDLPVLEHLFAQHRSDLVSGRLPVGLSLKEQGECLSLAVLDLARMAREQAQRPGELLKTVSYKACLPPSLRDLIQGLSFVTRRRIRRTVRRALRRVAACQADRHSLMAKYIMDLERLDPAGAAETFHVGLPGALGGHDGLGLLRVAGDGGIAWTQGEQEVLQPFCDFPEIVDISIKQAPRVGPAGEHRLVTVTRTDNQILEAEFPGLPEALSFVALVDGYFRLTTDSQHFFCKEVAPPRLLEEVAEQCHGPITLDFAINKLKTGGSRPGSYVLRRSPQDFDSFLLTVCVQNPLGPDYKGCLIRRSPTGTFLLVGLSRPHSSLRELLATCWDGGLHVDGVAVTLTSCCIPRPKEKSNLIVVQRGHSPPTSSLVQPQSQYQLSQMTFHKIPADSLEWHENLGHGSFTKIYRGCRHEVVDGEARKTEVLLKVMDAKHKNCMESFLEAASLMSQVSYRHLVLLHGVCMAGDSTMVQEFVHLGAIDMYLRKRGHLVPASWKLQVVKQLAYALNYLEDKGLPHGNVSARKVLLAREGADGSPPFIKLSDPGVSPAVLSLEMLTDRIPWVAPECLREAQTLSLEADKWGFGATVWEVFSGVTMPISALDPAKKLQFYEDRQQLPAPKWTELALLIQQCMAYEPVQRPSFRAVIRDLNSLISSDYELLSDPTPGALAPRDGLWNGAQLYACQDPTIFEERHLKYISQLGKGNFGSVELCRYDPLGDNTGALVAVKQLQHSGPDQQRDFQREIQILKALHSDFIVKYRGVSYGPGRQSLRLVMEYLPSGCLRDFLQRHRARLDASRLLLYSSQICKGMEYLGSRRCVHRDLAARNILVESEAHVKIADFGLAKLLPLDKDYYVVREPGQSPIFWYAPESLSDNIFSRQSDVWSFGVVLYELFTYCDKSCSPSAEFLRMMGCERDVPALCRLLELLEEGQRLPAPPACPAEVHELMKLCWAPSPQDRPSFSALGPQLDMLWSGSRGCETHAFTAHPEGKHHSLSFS

[3] = target: Epidermal growth factor receptor (Homo sapiens, UniProt P00533); test: Inhibition of recombinant human N-terminal GST-tagged wild-type EGFR (695 to end residues) expressed in baculovirus infected Sf9 insect cells using poly (Glu,Tyr)4:1 as substrate pretreated for 60 mins followed by substrate addition after 1 hr by ADP-Glo luminescence assay
Pfeiffer [4] = test: Cell cycle arrest in human Pfeiffer cells assessed as increase in accumulation at G0/G1 phase at 10 uM after 48 hrs by propidium iodide/RNase staining based flow cytometric method; type: functional
MV4-11 = test: Growth inhibition of human MV411 cells; type: functional
SU-DHL-2 = test: Growth inhibition of human SU-DHL-2 cells; type: functional
Pfeiffer [5] = test: Growth inhibition of human Pfeiffer cells; type: functional
NB-4 = test: Growth inhibition of human NB4 cells; type: functional
U2932 [6] = test: Growth inhibition of human U2932 cells; type: functional
SKM-1 = test: Growth inhibition of human SKM1 cells; type: functional
U-937 = test: Growth inhibition of human U937 cells; type: functional
OCI-AML-3 = test: Growth inhibition of human OCI-AML3 cells; type: functional
PBMC = test: Cytotoxicity against PBMC (unknwon origin); type: cell-based
[7] = Growth inhibition of human M07e cells; type: functional
U2932 [8] = test: Cell cycle arrest in human U2932 cells assessed as increase in accumulation at G0/G1 phase at 10 uM after 48 hrs by propidium iodide/RNase staining based flow cytometric method; type: functional
Ramos = test: Growth inhibition of human Ramos cells; type: functional

Tyrosine-protein kinase BTK, sequence (Q06187 whole entry): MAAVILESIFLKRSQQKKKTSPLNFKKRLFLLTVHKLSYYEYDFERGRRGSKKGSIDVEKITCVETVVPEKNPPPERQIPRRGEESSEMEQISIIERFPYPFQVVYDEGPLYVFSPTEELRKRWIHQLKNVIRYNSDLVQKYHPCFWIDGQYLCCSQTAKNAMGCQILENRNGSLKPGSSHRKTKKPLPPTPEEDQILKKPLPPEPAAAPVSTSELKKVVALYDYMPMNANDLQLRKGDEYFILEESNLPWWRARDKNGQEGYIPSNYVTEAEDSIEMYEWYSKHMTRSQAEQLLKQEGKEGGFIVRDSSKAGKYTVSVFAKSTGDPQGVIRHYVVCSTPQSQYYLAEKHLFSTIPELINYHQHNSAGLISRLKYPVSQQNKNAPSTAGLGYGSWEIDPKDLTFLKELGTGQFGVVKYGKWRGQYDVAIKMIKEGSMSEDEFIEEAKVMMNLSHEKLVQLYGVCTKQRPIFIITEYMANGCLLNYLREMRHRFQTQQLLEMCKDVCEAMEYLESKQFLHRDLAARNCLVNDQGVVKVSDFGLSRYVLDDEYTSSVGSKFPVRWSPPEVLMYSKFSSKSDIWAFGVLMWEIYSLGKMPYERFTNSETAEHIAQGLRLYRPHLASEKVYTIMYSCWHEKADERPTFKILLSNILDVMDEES
Epidermal growth factor receptor, sequence (P00533 whole entry): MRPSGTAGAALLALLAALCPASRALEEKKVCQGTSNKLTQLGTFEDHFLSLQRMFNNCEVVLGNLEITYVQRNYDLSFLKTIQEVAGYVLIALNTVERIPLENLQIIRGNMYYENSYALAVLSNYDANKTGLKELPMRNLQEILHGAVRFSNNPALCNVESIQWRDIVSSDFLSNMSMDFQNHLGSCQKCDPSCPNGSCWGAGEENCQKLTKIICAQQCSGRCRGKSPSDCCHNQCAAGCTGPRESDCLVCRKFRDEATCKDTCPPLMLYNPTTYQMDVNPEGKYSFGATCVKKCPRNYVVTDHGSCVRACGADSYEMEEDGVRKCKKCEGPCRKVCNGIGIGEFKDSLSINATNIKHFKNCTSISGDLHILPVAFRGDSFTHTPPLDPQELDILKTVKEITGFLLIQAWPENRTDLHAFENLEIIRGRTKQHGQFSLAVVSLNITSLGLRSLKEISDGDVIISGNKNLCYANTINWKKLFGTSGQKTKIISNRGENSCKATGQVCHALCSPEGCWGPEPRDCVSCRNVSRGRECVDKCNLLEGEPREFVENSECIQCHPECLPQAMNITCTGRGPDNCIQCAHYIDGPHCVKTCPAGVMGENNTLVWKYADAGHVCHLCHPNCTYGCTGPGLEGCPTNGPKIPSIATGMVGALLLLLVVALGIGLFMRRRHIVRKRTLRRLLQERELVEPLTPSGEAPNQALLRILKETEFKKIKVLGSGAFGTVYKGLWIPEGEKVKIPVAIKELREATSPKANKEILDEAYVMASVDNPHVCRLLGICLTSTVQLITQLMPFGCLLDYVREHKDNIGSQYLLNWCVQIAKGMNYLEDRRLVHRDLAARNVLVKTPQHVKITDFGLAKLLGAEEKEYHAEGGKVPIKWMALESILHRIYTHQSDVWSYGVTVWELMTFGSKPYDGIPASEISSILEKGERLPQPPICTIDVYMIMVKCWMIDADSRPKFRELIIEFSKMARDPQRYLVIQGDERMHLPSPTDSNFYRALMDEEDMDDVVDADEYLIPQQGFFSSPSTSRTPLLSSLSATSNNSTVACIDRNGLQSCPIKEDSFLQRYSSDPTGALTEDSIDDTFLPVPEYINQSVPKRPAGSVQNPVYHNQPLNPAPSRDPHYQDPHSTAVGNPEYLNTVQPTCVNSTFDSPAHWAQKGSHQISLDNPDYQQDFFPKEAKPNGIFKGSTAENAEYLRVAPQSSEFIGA

`C=CC(=O)Nc1cc(C(=O)N2CCOCC2)ccc1Nc1cc(-c2cccc(NC(=O)c3ccc(C(C)(C)C)cc3)c2C)cn(C)c1=O` gave an IC50 [1] of 231 nM.

Work on `C=CC(=O)Nc1cc(Nc2cc(-c3cccc(NC(=O)c4ccc(C(C)(C)C)cc4)c3C)cn(C)c2=O)ccc1C(=O)OC` yielded an IC50 [1] of 197 nM.

Molecule `C=CC(=O)Nc1cc(Nc2cc(-c3cccc(NC(=O)c4ccc(C(C)(C)C)cc4)c3C)cn(C)c2=O)ccc1C(=O)N1CCC(OC)CC1` has an IC50 [1] of 65 nM.

`C=CC(=O)Nc1cc(Nc2cc(-c3cccc(NC(=O)c4ccc5c(c4)OCCO5)c3C)cn(C)c2=O)ccc1C(=O)N1CCOCC1` showed an IC50 [1] of 89 nM.

`C=CC(=O)Nc1cc(Nc2cc(-c3cccc(NC(=O)c4ccc(N(C)C)cc4)c3C)cn(C)c2=O)ccc1C(=O)N1CCC(O)CC1` showed an IC50 [1] of 187 nM.

For `C=CC(=O)Nc1ccc(NC(=O)c2ccc(C(C)(C)C)cc2)c(C)c1-c1cc(Nc2ccc(C(=O)N3CCOCC3)cc2)c(=O)n(C)c1`, the IC50 [1] was 1700 nM.

Work on `C=CC(=O)Nc1cc(Nc2cc(-c3cccc(NC(=O)c4ccc(C(C)(C)C)cc4)c3C)cn(C)c2=O)ccc1C(=O)N1CCN(C)CC1` yielded an IC50 [1] of 127 nM.

`C=CC(=O)Nc1cc(Nc2cc(-c3cccc(NC(=O)c4ccc(C(C)(C)C)cc4)c3C)cn(C)c2=O)ccc1C(=O)N(C)C` gave an IC50 [1] of 34 nM.

With `C=CC(=O)NC1CCN(c2cc(-c3cccc(NC(=O)c4ccc(N(C)C)cc4)c3C)cn(C)c2=O)CC1` the IC50 [1] was > 10000 nM.

With `C=CC(=O)Nc1cccc(Nc2ncc(NC(=O)c3cc(NC(=O)c4cccc(C(F)(F)F)c4)ccc3C)cn2)c1` the IC50 [2] was 1700 nM and the IC50 [3] was 72 nM.

For `C=CC(=O)Nc1cccc(Nc2cc(-c3cccc(NC(=O)c4ccc(C(C)(C)C)cc4)c3C)cn(C)c2=O)c1`, the IC50 [1] was > 10000 nM.

With `C=CC(=O)Nc1cccc(Nc2nc(Nc3ccc(OCCOC)cc3)ncc2F)c1` [SPEBRUTINIB] the IC50 [2] was 1750 nM and the IC50 [3] was 442 nM.

In the case of `C=CC(=O)Nc1cc(Nc2cc(-c3cccc(NC(=O)c4cc(OC)c(OC)c(OC)c4)c3C)cn(C)c2=O)ccc1C(=O)N1CCOCC1`, the IC50 [1] is reported as 1430 nM.

`C=CC(=O)Nc1cc(Nc2cc(-c3cccc(NC(=O)c4ccc(OC)cc4)c3C)cn(C)c2=O)ccc1C(=O)N1CCOCC1` showed an IC50 [1] of 2610 nM.

In the case of `C=CC(=O)Nc1cc(Nc2cc(-c3cccc(NC(=O)c4ccc(C(C)(C)C)cc4)c3C)cn(C)c2=O)ccc1C`, the IC50 [1] is reported as 365 nM.

In the case of `C=CC(=O)N1CCCC(Nc2cc(-c3cccc(NC(=O)c4ccc(N(C)C)cc4)c3C)cn(C)c2=O)C1` (stereo unspecified), the IC50 [1] is reported as > 10000 nM.

In the case of `C=CC(=O)Nc1cc(Nc2cc(-c3cccc(NC(=O)c4ccc(C(C)(C)C)cc4)c3C)cn(C)c2=O)ccc1C(=O)N1CCCC(O)C1` (stereo unspecified), the IC50 [1] is reported as 21 nM.

`C=CC(=O)Nc1cc(Nc2cc(-c3cccc(NC(=O)c4ccc(C)c(C(F)(F)F)c4)c3C)cn(C)c2=O)ccc1C(=O)N1CCOCC1` gave an IC50 [1] of 1260 nM.

Molecule `C=CC(=O)Nc1cc(Nc2cc(-c3cccc(NC(=O)c4ccc(N(C)C)cc4)c3C)cn(C)c2=O)ccc1C(=O)N(CCOCC)CCOCC` has an IC50 [1] of 3190 nM.

With `C=CC(=O)Nc1cc(Nc2cc(-c3cccc(NC(=O)c4ccc5c(c4)OCO5)c3C)cn(C)c2=O)ccc1C(=O)N1CCOCC1` the IC50 [1] was 282 nM.

With `C=CC(=O)Nc1cc(Nc2cc(-c3cccc(NC(=O)c4ccc(N(C)C)cc4)c3C)cn(C)c2=O)ccc1C(=O)N1CCC(OC)CC1` the IC50 [1] was 596 nM.

In the case of `C=CC(=O)Nc1cc(Nc2cc(-c3cccc(NC(=O)c4ccc(N5CCOCC5)cc4)c3C)cn(C)c2=O)ccc1C(=O)N1CCOCC1`, the IC50 [1] is reported as 273 nM.

With `C=CC(=O)Nc1cc(Nc2cc(-c3cccc(NC(=O)c4ccccc4)c3C)cn(C)c2=O)ccc1C(=O)N1CCOCC1` the IC50 [1] was 3740 nM.

`C=CC(=O)Nc1cc(Nc2cc(-c3cccc(NC(=O)c4ccc(C(C)C)cc4)c3C)cn(C)c2=O)ccc1C(=O)N1CCOCC1` showed an IC50 [1] of 32 nM.

With `C=CC(=O)N1CCC(Nc2cc(-c3cccc(NC(=O)c4ccc(N(C)C)cc4)c3C)cn(C)c2=O)CC1` the IC50 [1] was > 10000 nM.

With `C=CC(=O)Nc1cc(Nc2cc(-c3cccc(NC(=O)c4ccc5c(c4)CCCC5)c3C)cn(C)c2=O)ccc1C(=O)N1CCOCC1` the IC50 [1] was 57 nM.

Work on `C=CC(=O)Nc1cc(Nc2cc(-c3cccc(NC(=O)c4ccc(C(C)(C)C)cc4)c3C)cn(C)c2=O)ccc1C(=O)N1CCN(C(=O)OC(C)(C)C)CC1` yielded an IC50 [1] of 68 nM.

Work on `Cc1c(NC(=O)c2ccc(C(C)(C)C)cc2)cccc1-c1cc(Nc2ccc(C(=O)N3CCOCC3)c(NC(=O)CCl)c2)c(=O)n(C)c1` yielded an IC50 [1] of 63 nM.

`C=CC(=O)NC1CCCC(Nc2cc(-c3cccc(NC(=O)c4ccc(N(C)C)cc4)c3C)cn(C)c2=O)C1` (stereo unspecified) gave an IC50 [1] of 2950 nM.

Work on `C=CC(=O)Nc1cc(Nc2cc(-c3cccc(NC(=O)c4cccc(OC)c4)c3C)cn(C)c2=O)ccc1C(=O)N1CCOCC1` yielded an IC50 [1] of 1190 nM.

With `C=CC(=O)NC1CCCN(c2cc(-c3cccc(NC(=O)c4ccc(N(C)C)cc4)c3C)cn(C)c2=O)C1` (stereo unspecified) the IC50 [1] was > 10000 nM.

Work on `C=CC(=O)Nc1cccc(Nc2nc(Nc3ccc(Oc4ccnc(C(=O)NC)c4)cc3)ncc2F)c1` yielded an IC50 [2] of 1530 nM.

`C=CC(=O)Nc1cc(Nc2cc(-c3cccc(NC(=O)c4ccc(N5CCCC5)cc4)c3C)cn(C)c2=O)ccc1C(=O)N1CCOCC1` gave an IC50 [1] of 86 nM.

With `C=CC(=O)Nc1cc(Nc2cc(-c3cccc(NC(=O)c4ccc(N(C)C)cc4)c3C)cn(C)c2=O)ccc1C(=O)N1CCCC(O)C1` (stereo unspecified) the IC50 [1] was 244 nM.

Molecule `C=CC(=O)Nc1cc(Nc2cc(-c3cccc(NC(=O)c4ccc(C)cc4)c3C)cn(C)c2=O)ccc1C(=O)N1CCOCC1` has an IC50 [1] of 114 nM.

Molecule `C=CC(=O)Nc1cc(Nc2cc(-c3cccc(NC(=O)c4ccc(CC)cc4)c3C)cn(C)c2=O)ccc1C(=O)N1CCOCC1` has an IC50 [1] of 210 nM.

For `C=CC(=O)N1CCC[C@@H](n2nc(-c3ccc(Oc4ccccc4)cc3)c3c(N)ncnc32)C1` [IBRUTINIB], the Activity (Pfeiffer [4]) was “Active”, the GI50 (MV4-11) was 250 nM and the GI50 (SU-DHL-2) was 640 nM. It also gave a GI50 (Pfeiffer [5]) of 1600 nM, a GI50 (NB-4) of 3000 nM and a GI50 (U2932 [6]) of 4400 nM. It also gave a GI50 (SKM-1) of 3600 nM, a GI50 (U-937) of 2900 nM and a GI50 (OCI-AML-3) of 9200 nM. For the same molecule, the Activity (PBMC) was “Non-Toxic”, the GI50 [7] was 590 nM and the Activity (U2932 [8]) was “Active”. For the same molecule, the GI50 (Ramos) was 3400 nM.

With `C=CC(=O)Nc1cc(Nc2cc(-c3cccc(NC(=O)c4ccc(C(F)(F)F)cc4)c3C)cn(C)c2=O)ccc1C(=O)N1CCOCC1` the IC50 [1] was 76 nM.

`C=CC(=O)Nc1cc(Nc2cc(-c3cccc(NC(=O)c4ccc(C(C)(C)C)cc4)c3C)cn(C)c2=O)ccc1C(=O)NC1CC1` gave an IC50 [1] of 41 nM.

For `C=CC(=O)N1CCc2ccc(-n3c(=O)ccc4cnc5ccc(-c6cnn(C)c6)cc5c43)cc21`, the IC50 [2] was 3340 nM and the IC50 [3] was 874 nM.

In the case of `C=CC(=O)Nc1cc(Nc2cc(-c3cccc(NC(=O)c4cccc(C(F)(F)F)c4)c3C)cn(C)c2=O)ccc1C(=O)N1CCOCC1`, the IC50 [1] is reported as > 10000 nM.
